From ChEMBL document CHEMBL3507680, “University of Dundee, Gates Library screen for HepG2 cell viability”

Experiment: Human HepG2 cell viability assay in 384 well format
Type: toxicity, cell-based
Parameters: dose 125 nL, time 70.5 hour; cytotoxicity at 70.5 h: concentration not given beside the values
Conditions: HepG2 cells, read-out: Inhibition
Compound Cn1ccnc1CN(Cc1cccnc1)CC1CCCO1 (stereo not given) has a cytotoxicity at 70.5 h of -8.2%. O=C(Nc1ccc(F)cc1)C1CNCCN1C(=O)CCc1cccnc1 (stereo not given) showed a cytotoxicity at 70.5 h of -5.37%. Work on CCc1ccc(S(=O)(=O)Nc2cc(C(=O)O)c(F)cc2F)s1 yielded a cytotoxicity at 70.5 h of 26.3%. In the case of O=C1[C@@H]2CN(Cc3ccccn3)C[C@H]2CCN1c1cncnc1, the cytotoxicity at 70.5 h is reported as -4.74%. COc1cccc(CC(=O)N2CC[C@@H]3NC(=O)CC[C@@H]32)c1 showed a cytotoxicity at 70.5 h of -0.893%. With CN(Cc1cccnc1)CC1CN(C(N)=O)Cc2nccn2C1 (stereo not given) the cytotoxicity at 70.5 h was -2.38%. With Cc1cccc(CN2CC3(CCN(C(=O)N(C)C)CC3)OCC2=O)n1 the cytotoxicity at 70.5 h was -0.965%. O=S(=O)(N1CCCCCC1)N1CCCN(CC2CCCO2)CC1 (stereo not given) showed a cytotoxicity at 70.5 h of -1.63%. For Cc1cc(S(C)(=O)=O)c(C)c(S(=O)(=O)NC2CCCC2)c1, the cytotoxicity at 70.5 h was -8.42%. CCc1ccc(S(=O)(=O)N2CCCC3(CCCN3S(C)(=O)=O)C2)cc1 (stereo not given) gave a cytotoxicity at 70.5 h of 22.3%. O=C(CCc1ccsc1)Nc1ccnn1C1CCS(=O)(=O)C1 (stereo not given) gave a cytotoxicity at 70.5 h of 16.5%. Work on Cc1ccc2c(c1)OCCCC2NCc1nnc2n1CCCCC2 (stereo not given) yielded a cytotoxicity at 70.5 h of -6.04%. In the case of COCCOCC(=O)Nc1cccc(CN(C)C(C)=O)c1, the cytotoxicity at 70.5 h is reported as 27.5%. For N#Cc1ccc(CN2C[C@@H](F)[C@@H](OCc3nc4cnccc4[nH]3)C2)cc1, the cytotoxicity at 70.5 h was -1.95%. COc1cccc(-c2n[nH]c3c2CN(C(=O)c2cc(C)n(C)n2)CC3)c1 gave a cytotoxicity at 70.5 h of -7.15%. For CCn1cc(CN2C[C@@H]3CCCN3C[C@H]2CCSC)cn1, the cytotoxicity at 70.5 h was -7.68%. Compound COc1ccc(COCC(O)CNC(=O)c2cc(C)oc2C)cc1 (stereo not given) has a cytotoxicity at 70.5 h of 1.97%. Compound CC(C)(C)C(=O)N1CCN(C(=O)Nc2cnn(CC(F)F)c2)CC1 has a cytotoxicity at 70.5 h of -7.22%. [O-][S+](CCN1CCc2[nH]nc(C(F)(F)F)c2C1)c1ccccc1 (stereo not given) gave a cytotoxicity at 70.5 h of -6.21%. In the case of Cc1cnn(C2CN(CC(=O)NCCc3ccccc3)C2)c1, the cytotoxicity at 70.5 h is reported as -16.2%. Work on Cc1cc(C(=O)N2CCN(c3nc4c(F)cccc4s3)CC2)no1 yielded a cytotoxicity at 70.5 h of -7.99%. Cn1cc(CN2CCC3(CC2)CN(C(=O)c2cnccn2)CCO3)cn1 gave a cytotoxicity at 70.5 h of -4.88%. With O=C1CC(c2cccc(O)c2)c2sc(C(=O)O)c(-c3ccccc3)c2N1 (stereo not given) the cytotoxicity at 70.5 h was 26.4%. For O=C(NN1CCCc2ccccc21)c1c[nH]c(=O)[nH]1, the cytotoxicity at 70.5 h was -7.94%. Compound CSCCNC(=O)c1coc(COc2ccc3sc(C)nc3c2)n1 has a cytotoxicity at 70.5 h of -13.9%. With CCn1c(C)nnc1CN(C)C1CCN(CCc2cccs2)C1 (stereo not given) the cytotoxicity at 70.5 h was 10.5%. With COCc1noc(-c2ccc(N(C)Cc3c(C)n[nH]c3C)nc2)n1 the cytotoxicity at 70.5 h was -5.36%. With Cc1noc(C)c1CNC(=O)NCCOc1ccc(F)cc1F the cytotoxicity at 70.5 h was -3.02%. Compound Cc1cc(C2CCCN(C(=O)c3ccc(OCC4CC4)nc3)C2)n[nH]1 (stereo not given) has a cytotoxicity at 70.5 h of -4.64%. For Cc1cc(C2CCCN(Cc3cccnc3)C2)n[nH]1 (stereo not given), the cytotoxicity at 70.5 h was 47.5%. Work on CCc1nc(CN2CCN(C(=O)C3(C#N)CCCCC3)CC2)cs1 yielded a cytotoxicity at 70.5 h of -0.0355%. CCc1nnc(CNCC2CCN(CC(O)c3ccccc3)CC2)o1 (stereo not given) showed a cytotoxicity at 70.5 h of 15.4%. Work on Cc1nn(C)c(N(C)C)c1CNC(C)COc1ccc(F)cc1F (stereo not given) yielded a cytotoxicity at 70.5 h of -8.01%. With Cc1cc(C)c2nc(C)c(C(=O)N3CCC(CCN(C)C)CC3)cc2c1 the cytotoxicity at 70.5 h was -1.81%. In the case of Cc1ccc(C(=O)N2CCOCC2)cc1NCc1ccsc1, the cytotoxicity at 70.5 h is reported as -12.3%. Work on COc1ccc2c(c1)C(NCCc1ncc(C)s1)CCCO2 (stereo not given) yielded a cytotoxicity at 70.5 h of -7.84%. Compound COCCN1CCC2(COCCN(C(=O)Cc3cccs3)C2)C1 (stereo not given) has a cytotoxicity at 70.5 h of -5.29%. Work on CCC(=O)N1CCCC1C(=O)N1CCC(Cc2ccc(F)cc2)CC1 (stereo not given) yielded a cytotoxicity at 70.5 h of -9.21%. Work on CS(=O)(=O)NC1CCCN(c2ccc(C#N)cn2)C1 (stereo not given) yielded a cytotoxicity at 70.5 h of -6.77%. Work on Cc1ccccc1CC(=O)NCCNc1nccc(C(F)(F)F)n1 yielded a cytotoxicity at 70.5 h of -8.29%. Work on CCc1nc(NC2CC(=O)N(CC3CCCCC3)C2)ncc1C (stereo not given) yielded a cytotoxicity at 70.5 h of -8.17%. With CN1C(=O)c2ccc(NC(=O)CSc3ccc4c(c3)CCC4)cc2C1=O the cytotoxicity at 70.5 h was -3.82%. Work on O=c1[nH]c(-c2ccccc2F)nc2c1CCNC2 yielded a cytotoxicity at 70.5 h of 14.4%. For Cc1ccccc1N1CCCN(C(=O)CN2C(=O)OC[C@@H]2C(C)C)CC1, the cytotoxicity at 70.5 h was 25.8%. Work on N#Cc1cccnc1NCCNC(=O)N1CCCSCC1 yielded a cytotoxicity at 70.5 h of -13%. With CC(NC(=O)CCCn1cnc2ccccc2c1=O)c1ncn[nH]1 (stereo not given) the cytotoxicity at 70.5 h was -15.2%. Compound Cc1ccc(CN2CCN(CC(=O)Nc3ccc4nsnc4c3)CC2)o1 has a cytotoxicity at 70.5 h of -5.71%. With CCc1ccc(NS(=O)(=O)c2cc3c(c(C(=O)O)c2)OCCO3)cc1 the cytotoxicity at 70.5 h was -0.0386%. In the case of O=C1CCC2(CCCN(c3ncnc4[nH]cnc34)C2)CN1CCCO (stereo not given), the cytotoxicity at 70.5 h is reported as -14.3%. CNC(=O)C1CCN(C(=O)c2cccn2Cc2cccs2)CC1 showed a cytotoxicity at 70.5 h of -8.46%. Work on CC(=O)Nc1ccc(Oc2ccc3c(c2)OCO3)nc1 yielded a cytotoxicity at 70.5 h of -12.3%. For O=c1cc(CNS(=O)(=O)C2CC2)nc2n1CCCNC2, the cytotoxicity at 70.5 h was -2.64%. CS(=O)(=O)NCCC(=O)N1Cc2cnc(-c3ccccc3)nc2C1 gave a cytotoxicity at 70.5 h of 2.41%. With CN(C)C(=O)c1cccc(NC(=O)CN2CCCCC2C2OCCO2)c1 (stereo not given) the cytotoxicity at 70.5 h was -5.7%. Compound CC(C)NC(=O)N1CCN(C(=O)C(C)C)CC2(CC(=O)N(C)C2)C1 (stereo not given) has a cytotoxicity at 70.5 h of 7.84%. With Cn1cc(CN2CC[C@H]3C[C@@H](c4nc(C5CC5)cs4)O[C@@H]3C2)cn1 the cytotoxicity at 70.5 h was 5.37%. In the case of Cc1ncncc1C(=O)N1CCCC(n2cccn2)C1 (stereo not given), the cytotoxicity at 70.5 h is reported as 8.65%. Compound CCc1nc(C2CCCN2CC(=O)Nc2sc(C)c(C)c2C)no1 (stereo not given) has a cytotoxicity at 70.5 h of -5.03%. Compound COCCN(C)C[C@H]1CC[C@@H](Cc2ccc3c(cnn3C)c2)O1 has a cytotoxicity at 70.5 h of -6.52%. Work on CCN(CC)c1ccc(C(=O)N2C[C@@H]3CC[C@H](C2)N(CCOC)C3)cc1 yielded a cytotoxicity at 70.5 h of 23.2%. With Cc1cccn2cc(CN3CCCC(O)C3)nc12 (stereo not given) the cytotoxicity at 70.5 h was -2.97%. Work on CNC(=O)Cc1ccccc1NC(=O)C1CCN(C2CCCCC2)C1 (stereo not given) yielded a cytotoxicity at 70.5 h of -7.23%. Work on c1cc(C2CC2)n2cnc(C3CN(Cc4ccncc4)CCO3)c2c1 (stereo not given) yielded a cytotoxicity at 70.5 h of -1.44%. With CC(C)N(C)C(=O)c1ccc(CNc2cncc(Cl)n2)cc1 the cytotoxicity at 70.5 h was -115%. Work on Cn1cnnc1C1CCCN(C(=O)NCCc2ccccn2)C1 (stereo not given) yielded a cytotoxicity at 70.5 h of -4.27%. For CN(C)c1nccc(C2CCCN(C(=O)CO)C2)n1 (stereo not given), the cytotoxicity at 70.5 h was -7.31%. COC(=O)c1cccc(C(=O)N2CCCC(n3cncn3)C2)c1 (stereo not given) gave a cytotoxicity at 70.5 h of -8.97%. For O=C(CCC1CCCO1)NCCc1ccccn1 (stereo not given), the cytotoxicity at 70.5 h was -10%. Compound CCC(CC)C(CNC(=O)Nc1ccc(OC)cc1)N1CCOCC1 (stereo not given) has a cytotoxicity at 70.5 h of -12.2%. Compound c1ccc(CCN2CCN(C3CCOC4(CCOCC4)C3)CC2)nc1 (stereo not given) has a cytotoxicity at 70.5 h of -9.08%. For CCc1ccc(S(=O)(=O)N2CCC3(CC(C(=O)NC)=NO3)C2)cc1 (stereo not given), the cytotoxicity at 70.5 h was -10.7%. For COc1cc(C)nc(N2CCN(C(=O)CN(C)C3CC3)CC2)n1, the cytotoxicity at 70.5 h was -4.51%. For Cc1nc(C)c(C)c(N2C[C@@H](CN3CCCN(C)CC3)[C@@H](CO)C2)n1, the cytotoxicity at 70.5 h was -1.83%. Compound CCC(=O)N1CCN(Cc2cnc(C)nc2)[C@H]2CS(=O)(=O)C[C@H]21 has a cytotoxicity at 70.5 h of 12.9%. CS(=O)(=O)c1ccc(CNC(=O)N2CCC(C(N)=O)C2)cc1 (stereo not given) showed a cytotoxicity at 70.5 h of 30%. Cc1cc(N2CCCC2c2nnc3n2CCCCC3)nc(N)n1 (stereo not given) showed a cytotoxicity at 70.5 h of 22.8%. In the case of COC1CCN(C(=O)C2CCCC2)CC(=O)N(C)c2ccccc21 (stereo not given), the cytotoxicity at 70.5 h is reported as 22.2%. In the case of CNC(=O)CCc1cc(C)nc(C2CCCN2)c1 (stereo not given), the cytotoxicity at 70.5 h is reported as -13.7%. For O=C(COCc1ccccc1)NCc1ccc(O)c(F)c1, the cytotoxicity at 70.5 h was -0.734%. Cc1nccn1-c1ccc(CNS(=O)(=O)N2CCC(C)CC2)cn1 showed a cytotoxicity at 70.5 h of 25.9%.
